# Laboratory results as given in patent publication US4595677A, “Substituted tetrapeptides” (Ciba-Geigy Corporation, priority 1982, dated 1986).
# Non-standard residues stand in square brackets, D forms with d. Residues, ends and D or L forms follow the SMILES beside them. *: point of attachment. Sta = CC(C)C[C@H](N)[C@@H](O)CC(=O)O; Cbz = O=C(OCc1ccccc1)*; Boc = CC(C)(C)OC(=O)*; Lac = C[C@H](O)C(=O)O; βAla = NCCC(=O)O; Sar = CNCC(=O)O
# Experiment: solubility in water of the isolated powder
# Type: physicochemical
# Details: lyophilised product
row,Molecule,water solubility of the amorphous powder
1,"CC(C)C[C@H](NC(=O)[C@H](Cc1c[nH]cn1)NC(=O)[C@H](Cc1ccccc1)NC(=O)[C@@H]1CCCN1C(=O)[C@H](Cc1c[nH]cn1)NC(=O)[C@@H]1CCCN1)[C@@H](O)CC(=O)N[C@H](C(=O)N[C@@H](Cc1ccc(O)cc1)C(=O)N[C@@H](CCCCN)C(=O)O)C(C)C [Example 1, H-Pro-His-Pro-Phe-His-Sta-Val-Tyr-Lys-OH×AcOH] (H-PHPFH[Sta]VYK-OH)",readily water-soluble
2,"CC(C)C[C@H](NC(=O)[C@H](Cc1c[nH]cn1)NC(=O)[C@H](Cc1ccccc1)NC(=O)[C@@H]1CCCN1C(=O)[C@H](CCCNC(=N)N)NC(=O)[C@@H](N)CCCNC(=N)N)[C@@H](O)CC(=O)N(C)CC(=O)N[C@@H](Cc1c[nH]cn1)C(=O)N[C@@H](CCCCN)C(=O)O [Example 19, H-Arg-Arg-Pro-Phe-His-Sta-Sar-His-Lys-OH] (H-RRPFH[Sta][Sar]HK-OH)",readily water-soluble
3,Z-Arg-Arg-Pro-Phe-His-Sta-Lac-His-NH2 [Example 22],readily water-soluble

# More lines, now with the values ahead:
row,water solubility of the amorphous powder,Molecule
1,water-soluble,"CC(C)C[C@H](NC(=O)[C@H](Cc1c[nH]cn1)NC(=O)[C@H](Cc1ccccc1)NC(=O)[C@@H]1CCCN1C(=O)[C@H](CCCNC(=N)N)NC(=O)[C@@H](N)CCCNC(=N)N)[C@@H](O)CC(=O)O[C@@H](C)C(=O)N[C@@H](Cc1c[nH]cn1)C(N)=O [Example 23, H-Arg-Arg-Pro-Phe-His-Sta-Lac-His-NH2] (H-RRPFH[Sta][Lac]H-NH2)"
2,readily water-soluble,Cbz-RRPFH[Sta][Sar]HK(Boc)-OMe [Example 16]
3,water-soluble,Cbz-RRPFH[Sta][βAla]H-NH2 [Example 20]
